Test results published in paper PMC9607427, “Novel 7-Chloro-(4-thioalkylquinoline) Derivatives: Synthesis and Antiproliferative Activity through Inducing Apoptosis and DNA/RNA Damage” (Pharmaceuticals, 2022).

Row | Structure (SMILES) | melting point [°C]
1 | COc1cccc(C(=O)OCCSc2ccnc3cc(Cl)ccc23)c1OC [Compound 6, 2-[(7-Chloroquinolin-4-yl)sulfanyl]ethyl 2,3-dimethoxybenzoate] | 108 to 109
2 | COc1ccc(C(=O)OCCCSc2ccnc3cc(Cl)ccc23)cc1 [Compound 23, 3-[(7-Chloroquinolin-4-yl)sulfanyl]propyl-4-methoxybenzoate] | 106 to 108
3 | CC(C)(C)c1ccc(C(=O)OCCSc2ccnc3cc(Cl)ccc23)cc1 [Compound 21, 2-[(7-Chloroquinolin-4-yl)sulfanyl]ethyl-4-tert-butylbenzoate] | 120 to 122
4 | COc1ccc(C(=O)OCCCSc2ccnc3cc(Cl)ccc23)c(OC)c1OC [Compound 28, 3-[(7-Chloroquinolin-4-yl)sulfanyl]propyl-2,3,4-trimethoxybenzoate] | 84
5 | O=C(OCCSc1ccnc2cc(Cl)ccc12)c1ccccc1Cl [Compound 15, 2-[(7-Chloroquinolin-4-yl)sulfanyl]ethyl 2-chlorobenzoate] | 108
6 | COc1ccc(C(=O)OCCCSc2ccnc3cc(Cl)ccc23)c(OC)c1 [Compound 25, 3-[(7-Chloroquinolin-4-yl)sulfanyl]propyl-2,4-dimethoxybenzoate] | 74 to 76
7 | COc1cccc(C(=O)OCCCSc2ccnc3cc(Cl)ccc23)c1OC [Compound 24, 3-[(7-Chloroquinolin-4-yl)sulfanyl]propyl-2,3-dimethoxybenzoate] | 78 to 80
8 | COc1ccc(C(=O)OCCSc2ccnc3cc(Cl)ccc23)c(OC)c1 [Compound 7, 2-[(7-Chloroquinolin-4-yl)sulfanyl]ethyl 2,4-dimethoxybenzoate] | 107 to 108
9 | COc1cc(OC)cc(C(=O)OCCCSc2ccnc3cc(Cl)ccc23)c1 [Compound 27, 3-[(7-Chloroquinolin-4-yl)sulfanyl]propyl-3,5-dimethoxybenzoate] | 148
10 | COc1cc(OC)c(C(=O)OCCSc2ccnc3cc(Cl)ccc23)cc1OC [Compound 13, 2-[(7-Chloroquinolin-4-yl)sulfanyl]ethyl 2,4,5-trimethoxybenzoate] | 134 to 135
11 | Cc1cc(C)cc(C(=O)OCCSc2ccnc3cc(Cl)ccc23)c1 [Compound 19, 2-[(7-Chloroquinolin-4-yl)sulfanyl]ethyl 3,5-dimethylbenzoate] | 102 to 104
12 | COc1ccc(C(=O)OCCSc2ccnc3cc(Cl)ccc23)cc1[N+](=O)[O-] [Compound 17, 2-[(7-Chloroquinolin-4-yl)sulfanyl]ethyl 4-methoxy-3-nitrobenzoate] | 171 to 173
13 | COc1ccc(C(=O)OCCSc2ccnc3cc(Cl)ccc23)cc1OC [Compound 10, 2-[(7-Chloroquinolin-4-yl)sulfanyl]ethyl 3,4-dimethoxybenzoate] | 109 to 110
14 | Cc1ccc([N+](=O)[O-])c(C(=O)OCCSc2ccnc3cc(Cl)ccc23)c1 [Compound 18, 2-[(7-Chloroquinolin-4-yl)sulfanyl]ethyl 5-methyl-2-nitrobenzoate] | 93 to 95
15 | COc1cccc(OC)c1C(=O)OCCSc1ccnc2cc(Cl)ccc12 [Compound 9, 2-[(7-Chloroquinolin-4-yl)sulfanyl]ethyl 2,6-dimethoxybenzoate] | 116 to 118
16 | COc1ccc(C(=O)OCCSc2ccnc3cc(Cl)ccc23)c(OC)c1OC [Compound 12, 2-[(7-Chloroquinolin-4-yl)sulfanyl]ethyl 2,3,4-trimethoxybenzoate] | 94 to 96
17 | COc1ccccc1C(=O)OCCSc1ccnc2cc(Cl)ccc12 [Compound 22, 2-[(7-Chloroquinolin-4-yl)sulfanyl]ethyl-2-methoxybenzoate] | 98 to 99
18 | COc1cc(C(=O)OCCSc2ccnc3cc(Cl)ccc23)cc(OC)c1OC [Compound 14, 2-[(7-Chloroquinolin-4-yl)sulfanyl]ethyl 3,4,5-trimethoxybenzoate] | 139 to 140
19 | COc1ccc(OC)c(C(=O)OCCSc2ccnc3cc(Cl)ccc23)c1 [Compound 8, 2-[(7-Chloroquinolin-4-yl)sulfanyl]ethyl-2,5-dimethoxybenzoate] | 98 to 100
20 | COc1cc(OC)cc(C(=O)OCCSc2ccnc3cc(Cl)ccc23)c1 [Compound 11, 2-[(7-Chloroquinolin-4-yl)sulfanyl]ethyl 3,5-dimethoxybenzoate] | 100 to 102

The remaining lines, values ahead:

Row | melting point [°C] | Structure (SMILES)
21 | 118 to 120 | COc1cc(OC)c(C(=O)OCCCSc2ccnc3cc(Cl)ccc23)cc1OC [Compound 29, 3-[(7-Chloroquinolin-4-yl)sulfanyl]propyl-2,4,5-trimethoxybenzoate]
22 | 112 to 113 | O=C(OCCCSc1ccnc2cc(Cl)ccc12)c1ccccc1F [Compound 40, 3-[(7-Chloroquinolin-4-yl)sulfanyl]propyl-2-fluorobenzoate]
23 | 138 to 140 | COc1ccc(C(=O)OCCCSc2ccnc3cc(Cl)ccc23)cc1[N+](=O)[O-] [Compound 35, 3-[(7-Chloroquinolin-4-yl)sulfanyl]propyl-4-methoxy-3-nitrobenzoate]
24 | 136 to 138 | Cc1cc(C)cc(C(=O)OCCCSc2ccnc3cc(Cl)ccc23)c1 [Compound 37, 3-[(7-Chloroquinolin-4-yl)sulfanyl]propyl-3,5-dimethylbenzoate]
25 | 122 to 124 | O=C(OCCCSc1ccnc2cc(Cl)ccc12)c1ccc(C(F)(F)F)cc1 [Compound 38, 3-[(7-Chloroquinolin-4-yl)sulfanyl]propyl-4-(trifluoromethyl)benzoate]
26 | 88 to 90 | CC(C)(C)c1ccc(C(=O)OCCCSc2ccnc3cc(Cl)ccc23)cc1 [Compound 39, 3-[(7-Chloroquinolin-4-yl)sulfanyl]propyl-4-tert-butylbenzoate]
27 | 151 to 153 | COc1cc(OC)c(C(=O)OCC[S+]([O-])c2ccnc3cc(Cl)ccc23)cc1OC (stereo not drawn) [Compound 45, 2-[(7-Chloroquinolin-4-yl)sulfinyl]ethyl-2,4,5-trimethoxybenzoate]
28 | 100 to 102 | O=C(OCCCSc1ccnc2cc(Cl)ccc12)c1ccccc1Cl [Compound 32, 3-[(7-Chloroquinolin-4-yl)sulfanyl]propyl-2-chlorobenzoate]
29 | 96 to 98 | O=C(OCCCSc1ccnc2cc(Cl)ccc12)c1cccc(Cl)c1 [Compound 33, 3-[(7-Chloroquinolin-4-yl)sulfanyl]propyl-3-chlorobenzoate]
30 | 91 to 92 | Cc1ccc([N+](=O)[O-])c(C(=O)OCCCSc2ccnc3cc(Cl)ccc23)c1 [Compound 36, 3-[(7-Chloroquinolin-4-yl)sulfanyl]propyl-5-methyl-2-nitrobenzoate]
31 | 144 to 146 | COc1cc(C(=O)OCC[S+]([O-])c2ccnc3cc(Cl)ccc23)cc(OC)c1OC (stereo not drawn) [Compound 46, 2-[(7-Chloroquinolin-4-yl)sulfinyl]ethyl-3,4,5-trimethoxybenzoate]
32 | 112 to 113 | COc1ccc(OC)c(C(=O)OCC[S+]([O-])c2ccnc3cc(Cl)ccc23)c1 (stereo not drawn) [Compound 44, 2-[(7-Chloroquinolin-4-yl)sulfinyl]ethyl-2,5-dimethoxybenzoate]
33 | 110 | COc1cccc(C(=O)OCC[S+]([O-])c2ccnc3cc(Cl)ccc23)c1OC (stereo not drawn) [Compound 43, 2-[(7-Chloroquinolin-4-yl)sulfinyl]ethyl-2,3-dimethoxybenzoate]
